Measured values as given in US20100081679A1, “DIAMINOPYRIMIDINES AS FUNGICIDES” (Bayer CropScience AG, priority 2007, published 2010).
Marks after values point to notes of the source that are not given here.

Assay: logP determination via retention times, calibrated with unbranched alkan-2-ones
Type: physicochemical
[1] = HPLC reversed-phase C 18, EEC Directive 79/831 Annex V.A8, method *: 40° C., 0.1% aqueous formic acid and acetonitrile, linear gradient 10% to 95% acetonitrile
[2] = HPLC on reversed-phase C18, method *: 40° C., 0.1% aqueous formic acid and acetonitrile, linear gradient 10% to 95% acetonitrile
[3] = HPLC on reversed-phase C 18, method **: 43° C., 0.1% aqueous phosphoric acid and acetonitrile, linear gradient 10% to 95% acetonitrile
[4] = method *: HPLC, reversed-phase C 18, 40° C., mobile phase 0.1% aqueous formic acid and acetonitrile, linear gradient from 10% to 95% acetonitrile
[5] = method **: HPLC, reversed-phase C 18, 43° C., mobile phase 0.1% aqueous phosphoric acid and acetonitrile, linear gradient from 10% to 95% acetonitrile

Row | Compound | logP [2] | also measured
1 | CC(O)C(=O)Nc1cccc(Nc2ncc(Cl)c(NC3CC3)n2)c1 (stereo not drawn) [compound 856] |  | logP [1]: 1.49*
2 | CSc1cccc(Nc2ncc(I)c(NC3CC3)n2)c1 [compound 858] |  | logP [1]: 2.44*
3 | Brc1cnc(Nc2cccc(I)c2)nc1NC1CC1 [compound 860] |  | logP (HPLC reversed-phase C 18, EEC Directive 79/831 Annex V.A8, method **: 43° C., 0.1% aqueous phosphoric acid and acetonitrile, linear gradient 10% to 95% acetonitrile): 3.34**
4 | O=C1OCCN1c1cccc(Nc2ncc(Cl)c(NCC3CC3)n2)c1 [compound 861] |  | logP [1]: 1.63*
5 | O=C1OCCN1c1cccc(Nc2ncc(Br)c(NCC3CC3)n2)c1 [compound 862] |  | logP [1]: 1.68*
6 | Clc1cnc(Nc2ccccc2Br)nc1NC1CC1 [compound 871] | 2.7* | 
7 | CC(C)c1ccccc1Nc1ncc(Cl)c(NC2CC2)n1 [compound 872] | 1.96* | 
8 | Clc1ccc(Oc2ccccc2)c(Nc2ncc(Cl)c(NC3CC3)n2)c1 [compound 873] | 4.87* | 
9 | CCOc1ccccc1Nc1ncc(Cl)c(NC2CC2)n1 [compound 876] | 2.13* | 
10 | CSc1ccccc1Nc1ncc(Cl)c(NC2CC2)n1 [compound 880] | 2.18* | 
11 | N#Cc1ccccc1Nc1ncc(Cl)c(NC2CC2)n1 [compound 881] | 0.85* | 
12 | FC(F)(F)Oc1ccccc1Nc1ncc(Cl)c(NC2CC2)n1 [compound 883] | 3.07* | 
13 | Clc1cnc(Nc2ccccc2Sc2ccccc2)nc1NC1CC1 [compound 884] | 3.94* | 
14 | CC(C)Sc1ccccc1Nc1ncc(Cl)c(NC2CC2)n1 [compound 885] | 3.72* | 
15 | Clc1cnc(Nc2ccccc2Cc2ccccc2)nc1NC1CC1 [compound 890] | 2.21* | 
16 | FC(F)C(F)(F)Oc1ccccc1Nc1ncc(Cl)c(NC2CC2)n1 [compound 896] | 3.14* | 
17 | Clc1cnc(Nc2ccccc2-c2ccccc2)nc1NC1CC1 [compound 900] | 2.46* | 
18 | Clc1cnc(Nc2ccccc2Oc2ccccc2)nc1NC1CC1 [compound 901] | 3.14* | 
19 | FC(F)(F)c1cc(Nc2ncc(Cl)c(NC3CC3)n2)cc(C(F)(F)F)c1 [compound 903] | 4.56* | 
20 | CCC(C)c1ccccc1Nc1ncc(Cl)c(NC2CC2)n1 (stereo not drawn) [compound 907] | 2.11* | 
21 | CCCCc1ccccc1Nc1ncc(Cl)c(NC2CC2)n1 [compound 911] | 2.3* | 
22 | CCCc1ccccc1Nc1ncc(Cl)c(NC2CC2)n1 [compound 912] | 2.01* | 
23 | Clc1cc(Nc2ncc(Cl)c(NC3CC3)n2)ccc1Br [compound 919] | 3.63* | 

Row | Compound | logP [2] | also measured
24 | FC(F)(F)c1cnc(Nc2ccccc2)nc1NCC1CC1 [compound 922] | 2.99* | 
25 | CN(c1nc(Nc2ccccc2)ncc1Br)C1CC1 [compound 928] |  | logP [3]: 1.7**
26 | Brc1cnc(Nc2ccccc2)nc1NC1(COc2ccccc2)CC1 [compound 932] | 3.03* | 
27 | Cc1cc(Cl)c(Br)cc1Nc1ncc(Cl)c(NC2CC2)n1 [compound 933] | 3.46* | 
28 | Fc1cc(C(F)(F)F)ccc1Nc1ncc(Cl)c(NC2CC2)n1 [compound 934] | 3.68* | 
29 | Cc1ccc(C)c(Nc2ncc(Cl)c(NC3CC3)n2)c1 [compound 935] | 1.83* | 
30 | N#Cc1cc(Nc2ncc(Cl)c(NC3CC3)n2)c(F)cc1Cl [compound 936] | 3.33* | 
31 | Clc1cnc(Nc2cccc(Cl)c2Cl)nc1NC1CC1 [compound 937] | 3.76* | 
32 | Cc1ccccc1Nc1ncc(Cl)c(NC2CC2)n1 [compound 938] | 1.61* | 
33 | Cc1ccc(Nc2ncc(Cl)c(NC3CC3)n2)cc1C [compound 939] | 2.01* | 
34 | Clc1ccccc1Nc1ncc(Cl)c(NC2CC2)n1 [compound 940] | 2.6* | 
35 | Clc1ccc(Nc2ncc(Cl)c(NC3CC3)n2)cc1Cl [compound 941] | 3.46* | 
36 | Clc1ccc(Nc2ncc(Cl)c(NC3CC3)n2)cc1Br [compound 942] | 3.55* | 
37 | FC(F)Oc1ccccc1Nc1ncc(Cl)c(NC2CC2)n1 [compound 943] | 2.36* | 
38 | FC(F)(F)Sc1ccccc1Nc1ncc(Cl)c(NC2CC2)n1 [compound 944] | 3.72* | 
39 | Cc1cc(F)ccc1Nc1ncc(Cl)c(NC2CC2)n1 [compound 945] | 1.68* | 
40 | Fc1cccc(Nc2ncc(Cl)c(NC3CC3)n2)c1F [compound 946] | 2.53* | 
41 | Fc1cc(Cl)ccc1Nc1ncc(Cl)c(NC2CC2)n1 [compound 947] | 3.03* | 
42 | Fc1ccc(F)c(Nc2ncc(Cl)c(NC3CC3)n2)c1 [compound 948] | 2.91* | 
43 | NS(=O)(=O)c1cc(Nc2ncc(Cl)c(NC3CC3)n2)ccc1Cl [compound 949] | 1.66* | 
44 | FC(F)(F)c1cccc(Nc2ncc(Cl)c(NC3CC3)n2)c1 [compound 950] | 3.03* | 
45 | CCc1ccc(Nc2ncc(Cl)c(NC3CC3)n2)cc1 [compound 951] | 2.13* | 
46 | Clc1cnc(Nc2ccc(C3CCCCC3)cc2)nc1NC1CC1 [compound 952] | 3.29* | 

Row | Compound | logP [2] | also measured
47 | CCCc1ccc(Nc2ncc(Cl)c(NC3CC3)n2)cc1 [compound 953] | 2.5* | 
48 | CC(=O)Nc1ccc(Nc2ncc(C(F)(F)F)c(NC3CC3)n2)cc1 [compound 956] |  | logP [3]: 1.64**
49 | CC(=O)CCc1cccc(Nc2ncc(C(F)(F)F)c(NC3CC3)n2)c1 [compound 959] | 2.68* | 
50 | CN(C)C(=O)c1cccc(Nc2ncc(Cl)c(NC3CC3)n2)c1 [compound 960] | 1.33* | 
51 | CN(CC1CC1)c1nc(Nc2ccccc2)ncc1Cl [compound 963] |  | logP [3]: 2.72**
52 | CN(CC1CC1)c1nc(Nc2cccc(N3CCCC3=O)c2)ncc1Cl [compound 964] |  | logP [3]: 2.21**
53 | COCc1cccc(Nc2ncc(Cl)c(N(C)CC3CC3)n2)c1 [compound 965] |  | logP [3]: 2.71**
54 | CN(CC1CC1)c1nc(Nc2ccc(N3CCCC3=O)cc2)ncc1Cl [compound 966] |  | logP [3]: 2.09**
55 | CC(=O)CCc1cccc(Nc2ncc(Br)c(NC3CC3)n2)c1 [compound 967] | 1.83* | 
56 | CSc1cccc(Nc2ncc(Cl)c(N(C)CC3CC3)n2)c1 [compound 968] |  | logP [3]: 3.6**
57 | COC(=O)Nc1ccc(Nc2ncc(Cl)c(N(C)CC3CC3)n2)cc1 [compound 970] |  | logP [3]: 1.99**
58 | COC(=O)c1ccc(Nc2ncc(C(F)(F)F)c(NC3CC3)n2)cc1 [compound 971] | 3.21* | 
59 | CC(C)c1cccc(Nc2ncc(C(F)(F)F)c(NC3CC3)n2)c1 [compound 973] | 4.14* | 
60 | N#CCc1cccc(Nc2ncc(C(F)(F)F)c(NC3CC3)n2)c1 [compound 976] | 2.56* | 
61 | CCOC(=O)Nc1ccc(Nc2ncc(Cl)c(NC3CC3)n2)cc1 [compound 977] | 1.63* | 
62 | CN(C=O)c1ccc(Nc2ncc(Cl)c(NC3CC3)n2)cc1 [compound 978] | 1.44* | 
63 | CC(=O)Nc1cc(Nc2ncc(Cl)c(NC3CC3)n2)ccc1C [compound 982] |  | logP [4]: 1.34*
64 | CCCSc1cccc(Nc2ncc(Cl)c(N(C)C3CC3)n2)c1 [compound 983] |  | logP [4]: 4.88*
65 | CCN(CC)C(=O)c1ccc(Nc2ncc(Cl)c(NC3CC3)n2)cc1 [compound 984] |  | logP [4]: 1.84*
66 | CCSCc1cccc(Nc2ncc(Cl)c(NC3CC3)n2)c1 [compound 986] |  | logP [4]: 2.55*
67 | CCSC(C)c1cccc(Nc2ncc(C(F)(F)F)c(NC3CC3)n2)c1 (stereo not drawn) [compound 987] |  | logP [4]: 4.19*
68 | CCSC(C)c1cccc(Nc2ncc(C(F)(F)F)c(NCC3CC3)n2)c1 (stereo not drawn) [compound 988] |  | logP [4]: 4.37*
69 | CC(C)Oc1ccc(Nc2ncc(Cl)c(NC3CC3)n2)cc1 [compound 989] |  | logP [4]: 1.97*

Row | Compound | logP [2] | also measured
70 | CCOC(=O)c1cc(Nc2ncc(Cl)c(NC3CC3)n2)ccc1Cl [compound 990] |  | logP [4]: 2.84*
71 | CCCCOc1cc(Nc2ncc(Cl)c(NC3CC3)n2)ccc1C [compound 991] |  | logP [4]: 3.13*
72 | CC(C)Oc1ccc(Nc2ncc(Cl)c(NC3CC3)n2)cc1OC(C)C [compound 992] |  | logP [4]: 2.42*
73 | COC(=O)c1cc(Nc2ncc(Cl)c(NC3CC3)n2)ccc1O [compound 993] |  | logP [4]: 1.81*
74 | Clc1cnc(Nc2ccc3ncsc3c2)nc1NC1CC1 [compound 995] |  | logP [4]: 1.66*
75 | FC(F)(F)c1cc(Br)cc(Nc2ncc(Cl)c(NC3CC3)n2)c1 [compound 998] |  | logP [4]: 4.6*
76 | Clc1cnc(Nc2ccc3c(c2)CCC3)nc1NC1CC1 [compound 1000] |  | logP [4]: 2.11*
77 | COC(=O)c1cc(Nc2ncc(Cl)c(NC3CC3)n2)cc(C(=O)OC)c1 [compound 1001] |  | logP [4]: 2.46*
78 | COC(=O)c1cc(Nc2ncc(Cl)c(NC3CC3)n2)ccc1OC [compound 1004] |  | logP [4]: 1.58*
79 | CC1CC1Nc1nc(Nc2ccccc2)ncc1Cl (stereo not drawn) [compound 1008] |  | logP [5]: 2**
80 | COCc1cc(COC)cc(Nc2ncc(Cl)c(NC3CC3)n2)c1 [compound 1012] |  | logP [4]: 1.76*
81 | Clc1cnc(Nc2ccc(Sc3ccccc3)cc2)nc1NC1CC1 [compound 1013] |  | logP [4]: 3.69*
82 | Clc1cnc(Nc2ccccc2)nc1NC1CC1c1ccccc1 (stereo not drawn) [compound 1014] |  | logP [5]: 2.77**
83 | N#Cc1cc(Nc2ncc(Cl)c(NC3CC3)n2)cc(C(F)(F)F)c1 [compound 1017] |  | logP [5]: 3.69**
84 | CC(=O)NS(=O)(=O)c1ccc(Nc2ncc(Cl)c(NC3CC3)n2)cc1 [compound 1021] |  | logP [5]: 1.54**
85 | Clc1cnc(Nc2cccc(CBr)c2)nc1NC1CC1 [compound 1023] |  | logP [5]: 2.31**
86 | C=CCOc1cccc(Nc2ncc(C(F)(F)F)c(NC3CC3)n2)c1 [compound 1024] |  | logP [5]: 3.54**
87 | COc1ccc(CN(c2nc(Nc3ccccc3)ncc2Cl)C2CC2)cc1 [compound 1025] |  | logP [5]: 4.15**
88 | COc1ccc(CN(c2nc(Nc3cccc(SC)c3)ncc2Cl)C2CC2)cc1 [compound 1026] |  | logP [5]: 4.78**
89 | CC1(C)CC1Nc1nc(Nc2ccccc2)ncc1Cl (stereo not drawn) [compound 1027] |  | logP [5]: 2.37**; logP [4]: 2.37*;
